Like-named read-outs stand apart in the source and are kept apart here.
Key:
HIV-1 IIIB [1] = assay: Antiviral activity; assay type: cell-based; details: Table 1; HIV-1 IIIB in MT-2 cells; 50% reduction in p24 production; ± SD
HIV-1 IIIB [2] = assay type: cell-based
NTD of capsid = details: affinity for the NTD; cited from earlier work
HIV-1 = details: cited from earlier work

N-Furan-2-ylmethyl-6-methoxy-N-(6-methyl-2-oxo-1,2-dihydro-quinolin-3-ylmethyl)-nicotinamide [Compound 19]
IC50 (HIV-1 IIIB [1]): > 24.8 µM

Cc1ccc2[nH]c(=O)c(CN(Cc3ccco3)C(=O)c3ccc(Cl)cc3)cc2c1 [Compound 6]
percentage of infectivity with respect to the untreated control (HIV-1 IIIB [2]; producer MT-2 cells treated with 2.5 μM, p24-normalized, TCID50): about 60%
infectivity of virions released in the supernatant (HIV-1 IIIB [2]; producer MT-2 cells treated with 5 μM): no viral infectivity

c1cc(CN2CCCNCCNCCCNCC2)ccc1CN1CCCNCCNCCCNCC1 [AMD3100]
infectivity of virions released in the supernatant (HIV-1 IIIB [2]; producer MT-2 cells treated with 1 μg/mL, positive control): no viral infectivity

Cc1ccc(NC(=O)NCCSCc2ccc(CN(C)C)o2)cc1Cl [CAP-1]
Kd (NTD of capsid): ~800 µM
HIV-1 inhibition in viral infectivity assays (HIV-1): dose-dependent HIV-1 inhibition
infectivity of particles produced after treatment (HIV-1): poorly infectious
inhibition of virus production (HIV-1): virtually no inhibition of virus production
